As usually defined, the inhibition is the relative decrease from the control value, in per cent.

The target in this assay is Androgen receptor (Homo sapiens) (UniProt P10275). Description: In vivo inhibition of AR in castrated CB17 mouse xenografted with human VCaP cells at 10 mg/kg, po via gavage measured after 16 hrs by ELISA relative to control. Background: A xenograft is tissue or cells of one species grown in another, often human tumour cells in immunodeficient mice.
Consider `CC1(C)[C@H](NC(=O)c2ccc(N3CCC(CN4CCN(c5ccc6c(c5)C(=O)N(C5CCC(=O)NC5=O)C6=O)CC4)CC3)nn2)C(C)(C)[C@H]1Oc1ccc(C#N)c(Cl)c1` (stereo partly specified), for which the inhibition was less than 50%. Take `CC1(C)[C@H](NC(=O)c2ccc(N3CCC(CN4CCN(c5cc6c(cc5F)C(=O)N(C5CCC(=O)NC5=O)C6=O)CC4)CC3)nn2)C(C)(C)[C@H]1Oc1ccc(C#N)c(Cl)c1` (stereo partly specified): the inhibition is greater than 50%. Regarding `CC1(C)[C@H](NC(=O)c2ccc(N3CCN(CCCCCOc4ccc5c(c4)C(=O)N(C4CCC(=O)NC4=O)C5=O)CC3)nc2)C(C)(C)[C@H]1Oc1ccc(C#N)c(C#N)c1` (stereo partly specified), the inhibition was greater than 50%. `CC(C)N(CC1CCN(c2ccc(C(=O)N[C@H]3C(C)(C)[C@H](Oc4ccc(C#N)c(Cl)c4)C3(C)C)cc2)CC1)[C@H]1C[C@H](Oc2ccc3c(c2)C(=O)N(C2CCC(=O)NC2=O)C3=O)C1` (stereo partly specified) registered an inhibition greater than 50%. As for `CC1(C)[C@H](NC(=O)c2cc(F)c(CCOCCCN3CCN(c4ccc5c(c4)C(=O)N(C4CCC(=O)NC4=O)C5=O)CC3)c(F)c2)C(C)(C)[C@H]1Oc1ccc(C#N)c(Cl)c1` (stereo partly specified), the inhibition was less than 50%. Compound `CC1(C)[C@H](NC(=O)c2ccc(N3CCN(CCCOc4ccc5c(c4)C(=O)N(C4CCC(=O)NC4=O)C5=O)CC3)cc2)C(C)(C)[C@H]1Oc1ccc(C#N)c(Cl)c1` (stereo partly specified) gave an inhibition greater than 50%. The compound `CC1(C)[C@H](NC(=O)c2cnc(N3CCN(CCCOc4ccc5c(c4)C(=O)N(C4CCC(=O)NC4=O)C5=O)CC3)cn2)C(C)(C)[C@H]1Oc1ccc(C#N)c(Cl)c1` (stereo partly specified) gave an inhibition greater than 50%.

As for `CC1(C)[C@H](NC(=O)c2ccc(N3CCN(CCCCCOc4ccc5c(c4)C(=O)N([C@H]4CCC(=O)NC4=O)C5=O)CC3)nc2)C(C)(C)[C@H]1Oc1ccc(C#N)c(Cl)c1`, the inhibition was greater than 50%. In the case of `CC1(C)[C@H](NC(=O)c2ccc(CCN3CCN(c4ccc5c(c4)C(=O)N(C4CCC(=O)NC4=O)C5=O)CC3)cc2)C(C)(C)[C@H]1Oc1ccc(C#N)c(Cl)c1` (stereo partly specified), the inhibition was greater than 50%. Regarding `CC1(C)[C@H](NC(=O)c2ccc(N3CCC(CN4CCN(c5cc6c(cc5F)C(=O)N(C5CCC(=O)NC5=O)C6=O)CC4)CC3)c(F)c2)C(C)(C)[C@H]1Oc1ccc(C#N)c(Cl)c1` (stereo partly specified), the inhibition was greater than 50%. `CC1(C)[C@H](NC(=O)c2ccc(N3CCC(CN4CCN(c5ccc6c(c5F)C(=O)N(C5CCC(=O)NC5=O)C6=O)CC4)CC3)cc2)C(C)(C)[C@H]1Oc1ccc(C#N)c(Cl)c1` (stereo partly specified) showed an inhibition greater than 50%.

The values above are taken from ChEMBL document CHEMBL4706719, “Androgen Receptor Degradation for Therapeutic Intervention of Prostate Cancer Drug Resistance” (ACS Med Chem Lett, 2021).
